In patent US10130611B2, “Use of benzo-heterocycle derivatives for preventing and treating cancer or for inhibiting cancer metastasis” (MEDICINAL BIOCONVERGENCE RESEARCH CENTER, priority 2009, dated 2018):

Each molecule was assayed against T1, interaction between KRS and laminin receptor (67LR) (Homo sapiens, UniProt Q15046) (assay: Yeast two hybrid growth assay, LexA-KRS/B42-LR pair). Conditions: growth inhibition of yeast EGY/SH cells with LexA-KRS/B42-LR vs control; 1 μl of 10 mg/ml compound per well, 6 days, absorbance 540 nm.
T1 construct: expressed in transfected cells; host or cells: yeast EGY/SH cells
T1 sequence (Q15046 whole entry): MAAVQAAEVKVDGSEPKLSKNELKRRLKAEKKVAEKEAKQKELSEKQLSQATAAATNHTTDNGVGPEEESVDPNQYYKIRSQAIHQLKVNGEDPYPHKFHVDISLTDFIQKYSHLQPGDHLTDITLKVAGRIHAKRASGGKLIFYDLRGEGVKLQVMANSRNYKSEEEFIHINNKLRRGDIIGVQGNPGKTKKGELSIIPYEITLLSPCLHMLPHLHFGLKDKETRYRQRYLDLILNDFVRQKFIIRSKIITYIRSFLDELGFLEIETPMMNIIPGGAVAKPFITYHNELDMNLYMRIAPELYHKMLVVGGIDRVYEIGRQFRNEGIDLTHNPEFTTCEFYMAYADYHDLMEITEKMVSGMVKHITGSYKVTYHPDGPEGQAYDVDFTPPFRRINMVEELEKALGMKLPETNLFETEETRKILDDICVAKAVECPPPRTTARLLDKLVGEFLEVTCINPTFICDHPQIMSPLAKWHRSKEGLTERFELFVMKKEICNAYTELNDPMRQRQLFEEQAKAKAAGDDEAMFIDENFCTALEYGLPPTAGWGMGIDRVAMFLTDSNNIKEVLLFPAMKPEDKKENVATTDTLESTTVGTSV
Type: cell-based
Protocol: On the compound of the present invention obtained by screening a library of compounds, the extent of inhibition on the interaction between KRS and laminin receptor (67LR) was determined by a yeast two hybrid assay, as described below. KRS, LR, AIMP2, AIMP3 and MRS were cloned at LexA vector (clontech) and B42 vector (clontech) each so as to produce required vectors. From among the vectors, LexA-KRS vector and B42-LR vector were co-transformed into yeast EGY/SH cells, and then the yeast cells were diluted to an absorbance (540 nm wavelength) of 0.2 in galactose medium not containing uracil (Ura), histidine (His), tryptophane (Trp) and leucine (Leu), and placed in an amount of 200 u in a 96 well plate. 1 μl of each compound at a concentration of 10 mg/ml was placed in each well, incubated for 6 days, and the absorbance was measured at 540 nm. […] The inhibitory specificity of the selected compound was tested by using two different interaction pairs such as LexA-KRS/B42-AIMP2 and LexA-MRS/B42-AIMP3.
In order to determine if the compound of the present invention controls the interaction between KRS and laminin receptor, the present inventors determined the interaction between KRS and 67LR through treatment of the compound of the present invention.
In the case of `COc1ccc2oc(NC(=O)c3ccccc3)nc2c1` [Compound of formula 3, N-(5-Methoxy-benzooxazol-2-yl)-benzamide], the “Inhibition rate(%)” value is reported as 59.98%.

Same assay, conditions: growth inhibition of yeast EGY/SH cells with LexA-KRS/B42-LR vs control; 1 μl of 10 mg/ml compound per well, 6 days, absorbance 540 nm; read-out: Inhibition rate(%)
Molecule `COc1ccc2nc(NC(=O)c3ccccc3)oc2c1` [Compound of formula 2, N-(6-Methoxy-benzooxazol-2-yl)-benzamide] has an inhibition at 10000 µg/mL (stock) of 54.2%.
`Clc1ccc2oc(Nc3ccccc3)nc2c1` [Compound of formula 4, (5-Chloro-benzooxazol-2-yl)-phenyl-amine] gave an inhibition at 10000 µg/mL (stock) of 51.8%.
`CCc1ccc(Nc2nc3cc(Cl)ccc3o2)cc1` [Compound of formula 5, (5-Chloro-benzooxazol-2-yl)-(4-ethyl-phenyl)-amine] gave an inhibition at 10000 µg/mL (stock) of 47.5%.
Work on `Clc1ccc2oc(Nc3ccc(Cl)c(Cl)c3)nc2c1` [Compound of formula 6, (5-Chloro-benzooxazol-2-yl)-(3,4-dichloro-phenyl)-amine] yielded an inhibition at 10000 µg/mL (stock) of 52.8%.
With `O=[N+]([O-])c1ccc2oc(Nc3ccc(/N=N/c4ccccc4)cc3)nc2c1` [Compound of formula 7, (5-Nitro-benzooxazol-2-yl)-(4-phenylazo-phenyl)-amine] the inhibition at 10000 µg/mL (stock) was 47.6%.
In the case of `O=C(Nc1nc2ccccc2o1)c1ccccc1` [Compound of formula 8, N-Benzooxazol-2-yl-benzamide], the inhibition at 10000 µg/mL (stock) is reported as 47.3%.
With `O=C(Nc1nc2cc([N+](=O)[O-])ccc2o1)c1ccccc1` [Compound of formula 9, N-(5-Nitro-benzooxazol-2-yl)-benzamide] the inhibition at 10000 µg/mL (stock) was 36.9%.
Work on `COc1ccc2oc(NC(=O)c3ccccc3)nc2c1` [Compound of formula 10, N-(5-Methoxy-benzooxazol-2-yl)-benzamide] yielded an inhibition at 10000 µg/mL (stock) of 60%.
`Cc1ccc2oc(NC(=O)c3ccccc3)nc2c1` [Compound of formula 11, N-(5-Methyl-benzooxazol-2-yl)-benzamide] gave an inhibition at 10000 µg/mL (stock) of 49.1%.
`O=C(Nc1nc2ccc([N+](=O)[O-])cc2s1)c1ccc(C(F)(F)F)cc1` [Compound of formula 12, N-(6-Nitro-benzothiazol-2-yl)-4-trifluoromethyl-benzamide] showed an inhibition at 10000 µg/mL (stock) of 52.5%.
With `Cc1ccc2oc(-c3ccccc3OCC(=O)O)nc2c1` [Compound of formula 13, [2-(5-Methyl-benzooxazol-2-yl)-phenoxy]-acetic acid] the inhibition at 10000 µg/mL (stock) was 55.2%.
`Cc1cc(C)c(-c2nc3cc(N)ccc3o2)c(C)c1` [Compound of formula 14, 2-(2,4,6-Trimethyl-phenyl)-benzooxazol-5-ylamine] gave an inhibition at 10000 µg/mL (stock) of 49.3%.
`COc1cccc(OC)c1-c1nc2ccccc2s1` [Compound of formula 16, 2-(2,6-Dimethoxy-phenyl)-benzothiazole] showed an inhibition at 10000 µg/mL (stock) of 47.6%.
`Fc1ccc(CNCc2c[nH]c3ccc(F)cc23)c(Cl)c1` [Compound of formula 17, (2-Chloro-4-fluoro-benzyl)-(5-fluoro-1H-indol-3-ylmethyl)-amine] showed an inhibition at 10000 µg/mL (stock) of 36.5%.

What follows are molecules tested on A549 cells (assay: Laminin-dependent membrane translocation of KRS and 67LR with kinase inhibitors). Conditions: inhibitor 3 hours then laminin 1 hour.
Type: cell-based, human
Protocol: (§1) In FIG. 7, A549 cells were treated with laminin (10 μg/ml), and the levels of 67LR, 37LRP and KRS were determined by western blotting at the indicated times. Hsp90 and cadherin (Cad) were used as markers for cytoplasm and membrane, respectively. In FIG. 8, A549 cells untreated or treated with laminin for 1 hour were subjected to immunofluorescence staining with anti-67LR (MLuC5, Santacruz, sc-59732) (red) and KRS antibodies (green). In FIG. 9, A549 cells were treated with U73122 (U), staurosporin (ST) and LY294002 (LY) that inhibit PLC-gamma, PKC and PI3K, respectively, for 3 hours, and then treated with laminin for 1 hour. Then, it was determined how these kinase inhibitors would affect the cytoplasm and membrane of 67LR and KRS. In FIG. 10, A549 cells were transfected with Myc-KRS, and incubated for 24 hours. Then, the cells were treated with the indicated drugs and then with laminin as above. Myc-KRS was immunoprecipitated, and immunoblotted with anti-p-Thr, -Ser, and -Tyr antibodies. In FIG. 11, A549 cells were transfected with Myc-KRS, and cultured for 24 hours. […] Myc-KRS was immunoprecipitated, and co-precipitation of 67LR was determined by western blotting. […] EPRS (glutamyl-prolyl-tRNA synthetase) was immunoprecipitated with its specific antibody (AbCam), and co-precipitation of KRS was determined by western blotting (upper). […]
For `COc1ccc2c(c1)CC[C@@H]1[C@@H]2CC[C@]2(C)[C@@H](NCCCCCCN3C(=O)C=CC3=O)CC[C@@H]12` [U73122], the “Laminin-dependent increase of KRS and 67LR in the membrane fraction” value was “larger laminin-dependent increase of 67LR than those in the control group”.
`CN[C@@H]1C[C@H]2O[C@@](C)([C@@H]1OC)n1c3ccccc3c3c4c(c5c6ccccc6n2c5c31)C(=O)NC4` [staurosporin] was tested, and the “Laminin-dependent increase of KRS and 67LR in the membrane fraction” value was “larger laminin-dependent increase of 67LR than those in the control group”.

What follows are molecules tested on KRS (assay: Laminin-induced phosphorylation of KRS (immunoblot p-Thr, -Ser, -Tyr)). Conditions: A549 cells transfected with Myc-KRS, inhibitor then laminin.
Type: cell-based, human
Protocol: as §1
In the case of `CN[C@@H]1C[C@H]2O[C@@](C)([C@@H]1OC)n1c3ccccc3c3c4c(c5c6ccccc6n2c5c31)C(=O)NC4` [staurosporin], the “laminin-induced phosphorylated KRS at threonine and serine” value is reported as “did not have any effect”.
